The NIST ThermoML archive (doi:10.1021/je800234h)

Test: mn = molality of the nth substance listed, in mol/kg
Conditions: Liquid, Vibrating tube method

[Ca+2].[Cl-].[Cl-] [calcium chloride] + CCO
Conditions | mass density [kg/m3]
348.15 K, 20480 kPa, m1 = 0.1743 | 776.42
348.15 K, 20640 kPa, m1 = 1.55 | 872.48
348.15 K, 20670 kPa, m1 = 0.9896 | 834.64
348.15 K, 20840 kPa, m1 = 0.4379 | 796.01
348.15 K, 25040 kPa, m1 = 0.4379 | 799.76
348.15 K, 25060 kPa, m1 = 1.266 | 855.9
348.15 K, 25160 kPa, m1 = 0.09327 | 774.52
348.15 K, 25190 kPa, m1 = 1.55 | 876.08
348.15 K, 25620 kPa, m1 = 0.1743 | 781.15
348.15 K, 25740 kPa, m1 = 0.6899 | 818.02
348.15 K, 25940 kPa, m1 = 0.9896 | 839.09
348.15 K, 30420 kPa, m1 = 0.1743 | 785.25
348.15 K, 30480 kPa, m1 = 0.09327 | 779.14
348.15 K, 30610 kPa, m1 = 0.6899 | 821.98
348.15 K, 30610 kPa, m1 = 1.266 | 860.42
348.15 K, 30730 kPa, m1 = 0.4379 | 804.51
348.15 K, 30750 kPa, m1 = 1.55 | 880.1
348.15 K, 30860 kPa, m1 = 0.9896 | 842.93
348.15 K, 35150 kPa, m1 = 0.4379 | 807.92
348.15 K, 35290 kPa, m1 = 1.55 | 883.06
348.15 K, 35370 kPa, m1 = 0.9896 | 846.17
348.15 K, 35410 kPa, m1 = 0.09327 | 783.08
348.15 K, 35480 kPa, m1 = 1.266 | 864.22
348.15 K, 35640 kPa, m1 = 0.6899 | 825.77
348.15 K, 35860 kPa, m1 = 0.1743 | 789.53
348.15 K, 39260 kPa, m1 = 0.09327 | 785.92
348.15 K, 39380 kPa, m1 = 0.4379 | 810.96
348.15 K, 39490 kPa, m1 = 0.6899 | 828.45
348.15 K, 39880 kPa, m1 = 1.55 | 885.77
348.15 K, 39960 kPa, m1 = 1.266 | 867.59
348.15 K, 39970 kPa, m1 = 0.1743 | 792.5
348.15 K, 39970 kPa, m1 = 0.9896 | 849.2
373.15 K, 370 kPa, m1 = 0.09327 | 722.5
373.15 K, 390 kPa, m1 = 1.55 | 828.22
373.15 K, 420 kPa, m1 = 1.266 | 808.17
373.15 K, 680 kPa, m1 = 0.1743 | 728.72
373.15 K, 870 kPa, m1 = 0.6899 | 766.95
373.15 K, 920 kPa, m1 = 0.9896 | 788.74
373.15 K, 940 kPa, m1 = 0.4379 | 749.01
